Assay [1] concerns Mus musculus. Put plainly: Lowest daily intraperitoneal dose causing hypervitaminosis A symptoms was determined in a 2-week period in mice. In kind it is functional.
For assay [2], the system named is Mus musculus. Put plainly: Antipapilloma activity was determined after intraperitoneal administration in mice. In kind it is functional. Conditions: ip.

The term ED50 denotes the dose that gives a 50% effect, or the effect in half of the subjects.

In the assay with Mus musculus [1], `CCOC(=O)/C=C(C)/C=C/C=C(C)/C=C/c1c(C)sc(C)c1C` yielded a Dose of 200 mg/kg. In the assay on Mus musculus [2], this compound registered an ED50 of 75 mg/kg.

For `COc1cc(C)c(/C=C/C(C)=C/C=C(F)/C(C)=C/C(=O)O)c(C)c1C`, the Dose with Mus musculus [1] worked out at 25 mg/kg. Further, the 50% effect level in the assay on Mus musculus [2] (ED50) was put at a dose of 11.5 mg/kg.

In the assay with Mus musculus [1], `CCOC(=O)/C=C(C)/C=C/C=C(C)/C=C/c1c(Cl)cc(OC)c(C)c1Cl` registered a Dose of 12 mg/kg. In the assay with Mus musculus [2], this compound yielded an ED50 of 6 mg/kg.

`CCOC(=O)c1ccc(/C=C(\C)c2ccc3c(c2)C(C)(C)CCC3(C)C)cc1` [AROTINOID]: the Dose with Mus musculus [1] was found to be 0.1 mg/kg. Also, the median effective dose (ED50) in the assay with Mus musculus [2] was 0.05 mg/kg.

In the case of `CCOC(=O)/C=C(C)/C=C/C=C(C)/C=C/c1c(C)cc(OC)c(C)c1C` [ETRETINATE], the Dose in the assay on Mus musculus [1] came to 50 mg/kg. In the assay on Mus musculus [2], the 50% effect level (ED50) was put at a dose of 25 mg/kg.

Regarding `CC1=C(/C=C/C(C)=C/C=C/C(C)=C\C(=O)O)C(C)(C)CCC1` [ISOTRETINOIN], in the assay with Mus musculus [1], the Dose stood at 400 mg/kg. In the assay on Mus musculus [2], this compound displayed a median effective dose (ED50) of 800 mg/kg.

In the case of `CC1=C(/C=C/C(C)=C/C=C/C(C)=C/C(=O)O)C(C)(C)CCC1` [TRETINOIN], the Dose in the assay with Mus musculus [1] is 80 mg/kg. In addition, in the assay with Mus musculus [2], the median effective dose (ED50) came out at 400 mg/kg.

These data come from ChEMBL document CHEMBL1122165, “Retinoids at the threshold: their biological significance and therapeutic potential” (J Med Chem, 1982).
